In brackets after ≈: the same amount, converted by molar mass.
How the values were obtained:
[1] = Drug concentration in CD-1 mouse plasma at 7.5 mg/kg, ip administered for 90 mins; assay type: ADME, organism-based
[2] = Metabolic stability in mouse liver microsomes assessed as intrinsic clearance at 10 uM preincubated for 5 mins followed by NADPH addition and measured upto 65 mins by LC-MS/MS analysis; assay type: ADME, Microsome; conditions: time < 70 min, read-out: CLH
[3] = molecular target: T1, Potassium/sodium hyperpolarization-activated cyclic nucleotide-gated channel 2 (Homo sapiens, UniProt Q9UL51); assay: Inhibition of HCN2 (unknown origin) by patch clamp method
T1 sequence (Q9UL51 whole entry): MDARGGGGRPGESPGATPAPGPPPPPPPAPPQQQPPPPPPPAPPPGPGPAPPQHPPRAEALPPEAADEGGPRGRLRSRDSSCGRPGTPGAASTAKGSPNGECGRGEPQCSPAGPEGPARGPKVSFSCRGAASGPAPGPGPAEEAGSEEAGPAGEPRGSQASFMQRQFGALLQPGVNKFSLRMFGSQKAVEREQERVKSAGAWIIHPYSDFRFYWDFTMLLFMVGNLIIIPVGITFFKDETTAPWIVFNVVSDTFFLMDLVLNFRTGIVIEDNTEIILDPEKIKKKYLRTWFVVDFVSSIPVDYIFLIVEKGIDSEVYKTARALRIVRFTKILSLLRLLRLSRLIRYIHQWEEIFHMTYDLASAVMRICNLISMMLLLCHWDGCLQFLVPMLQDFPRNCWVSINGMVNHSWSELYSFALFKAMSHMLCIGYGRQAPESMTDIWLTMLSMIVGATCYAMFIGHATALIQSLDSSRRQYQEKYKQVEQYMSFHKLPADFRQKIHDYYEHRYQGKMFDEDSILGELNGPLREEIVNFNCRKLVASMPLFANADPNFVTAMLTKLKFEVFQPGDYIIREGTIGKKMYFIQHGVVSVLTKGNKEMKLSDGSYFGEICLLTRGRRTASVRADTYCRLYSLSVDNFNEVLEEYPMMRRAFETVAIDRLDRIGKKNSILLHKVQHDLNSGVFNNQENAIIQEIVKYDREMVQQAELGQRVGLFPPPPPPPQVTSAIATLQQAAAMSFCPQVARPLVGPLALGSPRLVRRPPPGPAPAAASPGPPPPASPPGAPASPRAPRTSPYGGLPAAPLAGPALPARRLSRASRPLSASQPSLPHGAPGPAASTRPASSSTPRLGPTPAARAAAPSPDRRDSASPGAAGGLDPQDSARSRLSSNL

[4] = Clearance in CD-1 mouse by LC-MS/MS analysis; assay type: ADME; conditions: in vivo
Cytochrome P450 2B6 = molecular target: T2, Cytochrome P450 2B6 (Homo sapiens, UniProt P20813); assay: Inhibition of CYP2B6 (unknown origin); assay type: ADME
T2 sequence (P20813 whole entry): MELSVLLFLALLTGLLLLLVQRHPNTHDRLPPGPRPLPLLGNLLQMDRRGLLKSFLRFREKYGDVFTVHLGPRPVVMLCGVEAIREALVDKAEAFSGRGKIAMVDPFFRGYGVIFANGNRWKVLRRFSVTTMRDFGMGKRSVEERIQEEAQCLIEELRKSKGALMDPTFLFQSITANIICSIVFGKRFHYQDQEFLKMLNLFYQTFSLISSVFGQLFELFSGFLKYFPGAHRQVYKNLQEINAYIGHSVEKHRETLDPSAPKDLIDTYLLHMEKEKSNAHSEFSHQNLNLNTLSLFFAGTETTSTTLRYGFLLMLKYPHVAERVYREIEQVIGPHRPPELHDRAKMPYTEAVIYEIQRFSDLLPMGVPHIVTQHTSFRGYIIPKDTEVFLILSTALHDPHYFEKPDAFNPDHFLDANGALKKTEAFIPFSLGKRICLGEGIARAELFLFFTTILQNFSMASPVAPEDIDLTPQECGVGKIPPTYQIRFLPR

[5] = Metabolic stability in monkey hepatocytes assessed as clearance at 10 uM measured upto 120 mins by LC-MS/MS analysis; assay type: ADME, cell-based, Macaca mulatta, Hepatocyte; conditions: rhesus monkey, 2 h
[6] = Metabolic stability in dog liver microsomes assessed as intrinsic clearance at 10 uM preincubated for 5 mins followed by NADPH addition and measured upto 65 mins by LC-MS/MS analysis; assay type: ADME, Canis lupus familiaris, Microsome; conditions: time < 70 min, read-out: CLH
[7] = molecular target: Ionotropic glutamate receptor NMDA 1/2C (Homo sapiens, UniProt Q05586+Q14957); assay: Positive allosteric modulation of recombinant human GluN1/GluN2C receptor stably expressed in HEK293 cells assessed as increase in glycine/L-glutamate-induced channel current at -70 mV holding potential by whole cell patch clamp method
Cytochrome P450 2D6 = Cytochrome P450 2D6 (Homo sapiens, UniProt P10635); assay: Inhibition of CYP2D6 (unknown origin); assay type: ADME
[8] = Ratio of drug concentration in ip dosed CD-1 mouse brain to plasma after 1 hr by LC-MS/MS analysis; assay type: ADME, organism-based; conditions: brain and plasma
[9] = Drug concentration in CD-1 mouse brain at 7.5 mg/kg, ip administered for 90 mins; assay type: ADME, organism-based; conditions: read-out: Ct
[10] = molecular target: Voltage-dependent L-type calcium channel subunit alpha-1C (Homo sapiens, UniProt Q13936); assay: Inhibition of CaV1.2 (unknown origin) by patch clamp method
Voltage-dependent L-type calcium channel subunit alpha-1C, sequence (Q13936 whole entry): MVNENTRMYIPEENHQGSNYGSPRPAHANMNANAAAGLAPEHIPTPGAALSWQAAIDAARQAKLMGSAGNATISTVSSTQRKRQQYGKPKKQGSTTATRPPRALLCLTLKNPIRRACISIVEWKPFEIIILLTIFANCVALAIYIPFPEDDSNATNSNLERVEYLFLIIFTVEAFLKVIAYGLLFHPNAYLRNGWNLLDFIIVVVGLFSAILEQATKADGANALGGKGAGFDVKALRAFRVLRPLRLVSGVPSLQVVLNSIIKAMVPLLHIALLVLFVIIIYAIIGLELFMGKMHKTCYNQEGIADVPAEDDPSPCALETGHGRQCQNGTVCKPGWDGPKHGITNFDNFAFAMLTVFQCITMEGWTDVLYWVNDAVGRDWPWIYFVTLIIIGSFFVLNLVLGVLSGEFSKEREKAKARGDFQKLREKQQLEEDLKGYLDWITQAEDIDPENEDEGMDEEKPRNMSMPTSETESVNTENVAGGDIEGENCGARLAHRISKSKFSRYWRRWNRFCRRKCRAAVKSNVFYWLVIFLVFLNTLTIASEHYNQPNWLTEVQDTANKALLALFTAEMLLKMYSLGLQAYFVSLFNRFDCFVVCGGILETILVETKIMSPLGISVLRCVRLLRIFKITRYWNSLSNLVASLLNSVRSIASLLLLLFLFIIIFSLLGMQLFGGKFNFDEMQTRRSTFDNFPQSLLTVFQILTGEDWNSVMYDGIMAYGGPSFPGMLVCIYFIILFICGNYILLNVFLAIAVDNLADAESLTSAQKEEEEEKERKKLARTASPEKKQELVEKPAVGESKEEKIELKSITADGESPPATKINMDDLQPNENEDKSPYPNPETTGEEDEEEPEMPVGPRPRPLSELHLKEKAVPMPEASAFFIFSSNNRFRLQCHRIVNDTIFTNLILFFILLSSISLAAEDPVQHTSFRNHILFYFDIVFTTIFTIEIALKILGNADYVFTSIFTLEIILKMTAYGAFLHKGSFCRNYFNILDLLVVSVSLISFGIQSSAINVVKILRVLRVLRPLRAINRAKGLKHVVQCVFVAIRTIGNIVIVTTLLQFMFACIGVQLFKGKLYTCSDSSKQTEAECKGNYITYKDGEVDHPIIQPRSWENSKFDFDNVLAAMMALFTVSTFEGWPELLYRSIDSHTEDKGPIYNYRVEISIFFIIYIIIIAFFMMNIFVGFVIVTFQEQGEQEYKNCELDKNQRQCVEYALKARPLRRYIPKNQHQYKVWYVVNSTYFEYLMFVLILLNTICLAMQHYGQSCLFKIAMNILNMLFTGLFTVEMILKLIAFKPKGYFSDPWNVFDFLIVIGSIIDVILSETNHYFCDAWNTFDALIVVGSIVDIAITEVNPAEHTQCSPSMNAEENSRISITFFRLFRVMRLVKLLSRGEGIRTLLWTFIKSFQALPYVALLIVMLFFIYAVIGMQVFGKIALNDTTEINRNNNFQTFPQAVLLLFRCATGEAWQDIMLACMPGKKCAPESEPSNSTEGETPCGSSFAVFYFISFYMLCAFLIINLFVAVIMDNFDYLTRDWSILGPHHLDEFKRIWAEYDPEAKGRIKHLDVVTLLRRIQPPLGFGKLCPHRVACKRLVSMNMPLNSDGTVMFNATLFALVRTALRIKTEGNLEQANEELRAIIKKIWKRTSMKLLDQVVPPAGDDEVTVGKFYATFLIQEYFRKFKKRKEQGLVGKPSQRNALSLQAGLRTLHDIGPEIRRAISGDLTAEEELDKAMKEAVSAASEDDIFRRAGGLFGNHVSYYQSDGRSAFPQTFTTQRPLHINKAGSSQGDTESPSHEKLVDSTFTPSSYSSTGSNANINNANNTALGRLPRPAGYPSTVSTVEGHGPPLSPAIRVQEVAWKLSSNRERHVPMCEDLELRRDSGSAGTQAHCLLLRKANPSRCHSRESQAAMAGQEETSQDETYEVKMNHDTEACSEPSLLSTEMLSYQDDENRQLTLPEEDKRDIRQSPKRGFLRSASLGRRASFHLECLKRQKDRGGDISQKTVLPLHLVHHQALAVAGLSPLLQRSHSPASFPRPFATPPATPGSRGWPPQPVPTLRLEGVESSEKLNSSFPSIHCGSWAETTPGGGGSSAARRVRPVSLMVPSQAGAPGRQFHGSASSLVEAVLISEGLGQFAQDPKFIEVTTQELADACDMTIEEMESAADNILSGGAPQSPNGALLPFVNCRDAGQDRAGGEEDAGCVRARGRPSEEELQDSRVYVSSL

[11] = Metabolic stability in dog hepatocytes assessed as clearance at 10 uM measured upto 120 mins by LC-MS/MS analysis; assay type: ADME, cell-based, Canis lupus familiaris, Hepatocyte; conditions: 2 h
[12] = molecular target: Voltage-gated inwardly rectifying potassium channel KCNH2 (Homo sapiens, UniProt Q12809); assay: Inhibition of human ERG; assay type: toxicity
Voltage-gated inwardly rectifying potassium channel KCNH2, sequence (Q12809 whole entry): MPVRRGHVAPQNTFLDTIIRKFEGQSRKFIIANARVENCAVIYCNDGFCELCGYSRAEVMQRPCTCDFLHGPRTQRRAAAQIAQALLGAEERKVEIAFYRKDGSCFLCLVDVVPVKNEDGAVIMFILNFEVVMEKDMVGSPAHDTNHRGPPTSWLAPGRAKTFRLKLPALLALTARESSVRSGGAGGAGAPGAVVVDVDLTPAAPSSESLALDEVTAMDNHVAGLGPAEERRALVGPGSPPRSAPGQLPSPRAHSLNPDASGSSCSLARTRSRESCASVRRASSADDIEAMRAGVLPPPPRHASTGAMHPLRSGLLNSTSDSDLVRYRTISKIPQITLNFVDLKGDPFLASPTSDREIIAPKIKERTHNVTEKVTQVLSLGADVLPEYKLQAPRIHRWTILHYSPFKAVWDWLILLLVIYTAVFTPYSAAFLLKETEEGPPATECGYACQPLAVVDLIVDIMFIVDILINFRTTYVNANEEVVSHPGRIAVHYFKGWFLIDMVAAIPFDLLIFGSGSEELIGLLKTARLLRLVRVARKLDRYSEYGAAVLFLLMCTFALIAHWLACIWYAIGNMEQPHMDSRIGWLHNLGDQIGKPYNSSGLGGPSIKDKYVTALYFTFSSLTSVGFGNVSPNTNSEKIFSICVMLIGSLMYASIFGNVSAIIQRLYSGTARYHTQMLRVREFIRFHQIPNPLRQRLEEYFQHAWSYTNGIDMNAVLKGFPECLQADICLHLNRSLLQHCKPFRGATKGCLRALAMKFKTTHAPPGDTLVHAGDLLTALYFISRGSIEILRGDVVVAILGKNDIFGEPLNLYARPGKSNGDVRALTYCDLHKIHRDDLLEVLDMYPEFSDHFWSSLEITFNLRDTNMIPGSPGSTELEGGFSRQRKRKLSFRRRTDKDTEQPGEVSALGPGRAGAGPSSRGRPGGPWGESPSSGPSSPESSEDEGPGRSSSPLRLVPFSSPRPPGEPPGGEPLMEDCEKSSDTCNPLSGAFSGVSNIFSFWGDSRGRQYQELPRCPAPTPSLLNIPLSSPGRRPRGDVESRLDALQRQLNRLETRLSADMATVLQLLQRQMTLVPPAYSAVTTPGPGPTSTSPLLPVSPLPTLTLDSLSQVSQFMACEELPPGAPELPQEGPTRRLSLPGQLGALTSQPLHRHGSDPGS

[13] = Metabolic stability in human hepatocytes assessed as clearance at 10 uM measured upto 120 mins by LC-MS/MS analysis; assay type: ADME, cell-based, Hepatocyte; conditions: 2 h
[14] = molecular target: Ionotropic glutamate receptor NMDA 1/2D (Homo sapiens, UniProt O15399+Q05586); assay: Positive allosteric modulation of recombinant human GluN1/GluN2D receptor stably expressed in HEK293 cells assessed as increase in glycine/L-glutamate-induced channel current at -70 mV holding potential by whole cell patch clamp method
[15] = molecular target: Sodium channel protein type 5 subunit alpha (Homo sapiens, UniProt Q14524); assay: Inhibition of NaV1.5 (unknown origin)
[16] = Aqueous solubility of compound in PBS incubated for 1 hr under shaking condition by HPLC-MS/MS analysis; assay type: physicochemical
[17] = molecular target: Glutamate NMDA receptor; GRIN1/GRIN2A (Homo sapiens, UniProt Q05586+Q12879); assay: Positive allosteric modulation of recombinant human GluN1/GluN2A receptor stably expressed in HEK293 cells assessed as increase in glycine/L-glutamate-induced channel current at -70 mV holding potential by whole cell patch clamp method; assay type: cell-based
Glutamate NMDA receptor; GRIN1/GRIN2A, sequence (Q12879 whole entry, other chains not shown): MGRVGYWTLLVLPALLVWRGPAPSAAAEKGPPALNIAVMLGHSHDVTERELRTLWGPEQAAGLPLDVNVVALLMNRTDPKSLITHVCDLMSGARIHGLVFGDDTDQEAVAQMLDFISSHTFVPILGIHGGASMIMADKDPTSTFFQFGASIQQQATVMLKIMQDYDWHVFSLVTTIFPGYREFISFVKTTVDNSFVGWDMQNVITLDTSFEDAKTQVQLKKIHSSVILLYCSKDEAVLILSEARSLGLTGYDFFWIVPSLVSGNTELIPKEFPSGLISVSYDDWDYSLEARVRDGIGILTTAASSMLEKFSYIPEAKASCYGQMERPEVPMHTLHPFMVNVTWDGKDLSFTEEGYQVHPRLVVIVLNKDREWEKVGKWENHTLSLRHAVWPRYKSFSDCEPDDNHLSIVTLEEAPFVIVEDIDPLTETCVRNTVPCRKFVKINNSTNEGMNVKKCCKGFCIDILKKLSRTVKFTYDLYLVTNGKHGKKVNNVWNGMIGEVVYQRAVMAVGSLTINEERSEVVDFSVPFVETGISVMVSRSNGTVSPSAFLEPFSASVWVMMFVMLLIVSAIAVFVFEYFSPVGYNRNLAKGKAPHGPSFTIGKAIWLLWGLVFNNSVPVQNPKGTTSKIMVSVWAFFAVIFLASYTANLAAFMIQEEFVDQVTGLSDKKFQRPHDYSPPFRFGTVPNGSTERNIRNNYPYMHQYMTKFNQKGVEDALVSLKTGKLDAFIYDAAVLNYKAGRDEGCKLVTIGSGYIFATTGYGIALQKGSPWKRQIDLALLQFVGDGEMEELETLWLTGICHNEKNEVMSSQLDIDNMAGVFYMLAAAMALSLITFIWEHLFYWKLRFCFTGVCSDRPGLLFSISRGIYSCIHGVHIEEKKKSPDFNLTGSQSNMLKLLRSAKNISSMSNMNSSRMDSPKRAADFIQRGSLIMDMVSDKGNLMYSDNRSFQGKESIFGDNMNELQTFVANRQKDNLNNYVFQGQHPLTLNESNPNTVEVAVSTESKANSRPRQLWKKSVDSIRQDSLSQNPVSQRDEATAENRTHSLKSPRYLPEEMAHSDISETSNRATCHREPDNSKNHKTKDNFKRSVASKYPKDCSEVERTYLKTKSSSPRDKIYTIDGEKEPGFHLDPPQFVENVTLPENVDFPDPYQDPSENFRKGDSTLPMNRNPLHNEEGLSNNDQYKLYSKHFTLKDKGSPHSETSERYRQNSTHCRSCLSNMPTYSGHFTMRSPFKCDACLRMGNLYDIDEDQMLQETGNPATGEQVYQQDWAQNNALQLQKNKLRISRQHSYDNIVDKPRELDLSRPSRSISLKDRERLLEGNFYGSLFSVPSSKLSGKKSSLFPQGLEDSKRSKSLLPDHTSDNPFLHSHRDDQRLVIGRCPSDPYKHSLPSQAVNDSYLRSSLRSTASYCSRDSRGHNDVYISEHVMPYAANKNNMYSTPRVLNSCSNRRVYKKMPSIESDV

[18] = Metabolic stability in human liver microsomes assessed as intrinsic clearance at 10 uM preincubated for 5 mins followed by NADPH addition and measured upto 65 mins by LC-MS/MS analysis; assay type: ADME, Microsome; conditions: time < 70 min, read-out: CLH
[19] = Clearance in Beagle dog by LC-MS/MS analysis; assay type: ADME, Canis lupus familiaris; conditions: in vivo
Mus musculus = assay: Reversal of DOI-induced hyperlocomotion in CD-1 mouse assessed as reduction in distance travel at 7.5 mg/kg, ip administered 90 mins prior to DOI induction and measured upto 30 mins post DOI treatment (reference value: 7.8 +/- 0.8 meter); assay type: functional; conditions: time <= 120 min, 2 h
[20] = Oral bioavailability in Beagle dog by LC-MS/MS analysis; assay type: ADME, organism-based, Canis lupus familiaris; conditions: in vivo

concentration at 1.5 h [1]: 1590 ng/mL | microsomal CLint at 10 µM [2]: < 1 µL/min/mg | IC50 [3]: > 30 µM | clearance [4]: 5 mL/min/kg | IC50 (Cytochrome P450 2B6): > 100 µM | CLH [5]: 18.3 mL/min/kg | microsomal CLint at 10 µM [6]: 4.7 µL/min/mg | EC50 [7]: 0.15 µM | IC50 (Cytochrome P450 2D6): > 100 µM | Kp at 1 h [8]: 0.2 | concentration at 1.5 h [9]: 1190 ng/g | CLH [11]: 15 mL/min/kg | CLH [13]: 6.7 mL/min/kg | EC50 [14]: 0.43 µM | solubility at 1 h [16]: 2.2 µM (≈ 1 µg/mL) | EC50 [17]: 0.086 µM | microsomal CLint at 10 µM [18]: 10 µL/min/mg | clearance [19]: 3.33 mL/min/kg | bioavailability [20]: 30%
SMILES: C[C@H](CC[C@](C)(O)C(F)(F)F)[C@H]1CC[C@H]2[C@@H]3CC=C4C[C@@](C)(O)CC[C@]4(C)[C@H]3CC[C@]12C [DALZANEMDOR]
IC50 [10]: > 30 µM | IC50 [12]: > 30 µM | IC50 [15]: > 30 µM | Activity (Mus musculus): 0.4 m

— ChEMBL document CHEMBL5131569, “SAGE-718: A First-in-Class N-Methyl-d-Aspartate Receptor Positive Allosteric Modulator for the Potential Treatment of Cognitive Impairment” (J Med Chem, 2022)
